Experimental data reported in publication PMC7408547, “Bivalent Inhibitor with Selectivity for Trimeric MMP-9 Amplifies Neutrophil Chemotaxis and Enables Functional Studies on MMP-9 Proteoforms” (Cells, 2020).

System: secretions of fMLF stimulated human granulocytes
Experiment: Gelatinolysis in secretions of fMLF stimulated human granulocytes
Format: biochemical
Settings: neutrophil elastase inhibitor 20 µM; depending on the donor (n = 4)
Protocol: To determine the inhibition of gelatinolytic activity, we used a previously optimized gelatin degradation assay. Activated MMP-9, activated MMP-2, neutrophil elastase or supernatants of stimulated neutrophils, were incubated with different concentrations of inhibitors and incubated for 30 min at 37 °C. Next, dye-quenched gelatin (DQ™-gelatin, Invitrogen, Carlsbad, CA, USA) was added at a final concentration of 2.5 µg/mL and the increase in fluorescence over time was measured with the CLARIOstar microplate reader (BMG Labtech, Ortenberg, Germany). For other MMPs, the OmniMMP substrate peptide (Mca-PLGL-Dpa-AR-NH2, cat. no. BML-P126-0001, Enzo Life Sciences, Farmingdale, NY, USA) was used at a final concentration of 2.5 µg/mL. For ADAM17 the fluorogenic peptide Mca-PLAQAV-Dpa-RSSSR-NH2 (ES003, R & D systems, Minneapolis, MO, USA) and for neutrophil elastase the fluorogenic substrate MeOSuc-AAPV-AMC (cat. no. 324740, Merck Millipore, Darmstadt, Germany) were used. Proteolytic activity was determined by linear regression of the fluorescence curve and the percentage inhibition was calculated through comparison with the positive control (no inhibitors). When testing supernatants from human neutrophils, the assay was performed in the presence of 20 µM neutrophil elastase inhibitor (Elastase Inhibitor IV, Calbiochem, Darmstadt, Germany).
Neutrophils were isolated from fresh blood from healthy donors, via density gradient centrifugation as described. To obtain neutrophil degranulate, neutrophils were suspended in degranulation buffer (120 mM NaCl, 15 mM CaCl2, 20 mM Tris/HCl pH 7.5) at a concentration of 10^7 cells/mL and degranulation was induced by incubating neutrophils with N-formyl-methionyl-leucyl-phenylalanine (fMLF) (final concentration 0.5 µM) for 20 min at 37 °C as previously described. Next, the supernatant was collected by centrifugation. For fresh blood donations, all subjects gave written informed consent in accordance with the Declaration of Helsinki.

Cc1cccc(C(=O)n2nc(C#N)c3ccccc32)c1 [neutrophil elastase inhibitor, reference compound]
percentage of gelatinolytic activity inhibited: 84–97%
